Test results: US10029990B2, “Agent for inducing endogenous interferon” (priority 2010, dated 2018)

Key:
endogenous interferon [1] = test: Interferon inducing activity in vivo during oral administration to mice; settings: 5.0 mg/mouse, background 7-10 units
endogenous interferon [2] = test: Interferon inducing activity in vivo during intragastric administration to mice; settings: 1000 μg/mouse, background 7-10 units
[3] = Concentration in blood plasma of rabbits during vaginal administration (vaginal suppositories 0.1 g); type: in vivo
Method: Concentration in blood plasma of the experimental animals during vaginal administration of the inventive substance.
The results of measuring the concentration of the substance in blood plasma of rabbits during vaginal administration in the form of “vaginal suppositories 0.1 g” are shown on the provided diagram in the form of averaged pharmacokinetic curves (see FIG. 1). After inserting the suppository, the substance began to enter the general blood circulation after approximately 15 minutes; after 1 hour the concentration of the substance in the blood reached its maximum (approximately 120 μg/ml); then it was gradually excreted from the organism, and 24 hours after its administration the detected presence of the substance in blood plasma was minimal (approximately 20 μg/ml). The dispersion of individual values was moderate: coefficient of variation CV amounted to 13-22%.

COC(=O)c1cccc(Nc2cc(=O)[nH]c(=O)[nH]2)c1 [The inventive substance, monomer, 6-(3-methoxycarbonylphenyl) amino-2,4 (1H, 3H)-pyrimidinedione]
Interferon inducing activity, 2 hours (endogenous interferon [1]; 2 hours): 18 IU
Interferon inducing activity, 4 hours (endogenous interferon [1]; 4 hours): 120 IU
Interferon inducing activity, 6 hours (endogenous interferon [1]; 6 hours): 20 IU
Interferon inducing activity, 8 hours (endogenous interferon [1]; 8 hours): 40 IU
Interferon inducing activity, 24 hours (endogenous interferon [1]; 24 hours): 100 IU
Interferon inducing activity, 2 hours (endogenous interferon [2]; 2 hours): 30 IU
Interferon inducing activity, 4 hours (endogenous interferon [2]; 4 hours): 10 IU
Interferon inducing activity, 6 hours (endogenous interferon [2]; 6 hours): 160 IU
Interferon inducing activity, 8 hours (endogenous interferon [2]; 8 hours): 25-30 IU
Interferon inducing activity, 24 hours (endogenous interferon [2]; 24 hours): 30 IU
Time at which concentration in the blood reached its maximum [3]: 1 h
Time until the substance began to enter the general blood circulation [3]: approximately 15 minutes
Maximum concentration of the substance in the blood ([3]; after 1 hour): approximately 120 μg/ml
concentration at 24 h ([3]; rabbit, plasma, other: vaginal, 24 hours, read-out: Concentration of the substance in blood plasma 24 hours after administration): ~20000 ng/mL
